From ChEMBL document CHEMBL4665712, “Phosphonium-ammonium-based di-cationic ionic liquids as antibacterial over the ESKAPE group” (Bioorg Med Chem Lett, 2020)

Tests used:
Escherichia coli = assay: Antibacterial activity against Escherichia coli CIP 54.8; format: functional
Pseudomonas aeruginosa = assay: Antibacterial activity against Pseudomonas aeruginosa 100720; format: functional
Acinetobacter baumannii = assay: Antibacterial activity against Acinetobacter baumannii ATCC 19606; format: functional; settings: ATCC 19606 = CIP 70.34 = JCM 6841
Klebsiella pneumoniae = assay: Antibacterial activity against Klebsiella pneumoniae CIP 82.91; format: functional
Staphylococcus aureus = assay: Antibacterial activity against Staphylococcus aureus CIP 7625; format: functional
Enterococcus faecium = assay: Antibacterial activity against Enterococcus faecium 20477; format: functional
HepG2 = assay: Cytotoxicity against human HepG2 cells assessed as reduction in cell viability; format: cell-based

| Compound | MIC (Escherichia coli) | MIC (Pseudomonas aeruginosa) | MIC (Acinetobacter baumannii) | MIC (Klebsiella pneumoniae) | MIC (Staphylococcus aureus) | MIC (Enterococcus faecium) | Activity (HepG2) |
| --- | --- | --- | --- | --- | --- | --- | --- |
| CCCCCC[P+](CCCCCC)(CCCCCC)CCCCCC[P+](CCCC)(CCCC)CCCC.[Br-].[Br-] | > 64 µg/mL | > 64 µg/mL | > 64 µg/mL | > 64 µg/mL | 2 µg/mL | 8 µg/mL |  |
| CCCC[P+](CCCC)(CCCC)CCCCCCCCCC[P+](CCCC)(CCCC)CCCC.[Br-].[Br-] | > 64 µg/mL | > 64 µg/mL | > 64 µg/mL | > 64 µg/mL | 16 µg/mL | > 64 µg/mL | Toxic |
| CCCCCCCC[P+](CCCCCCCC)(CCCCCCCC)CCCCCCCCCC[P+](CCCCCCCC)(CCCCCCCC)CCCCCCCC.[Br-].[Br-] | > 64 µg/mL | > 64 µg/mL | > 64 µg/mL | > 64 µg/mL | 16 µg/mL | 32 µg/mL | Toxic |
| CCCCCCCC[P+](CCCCCCCC)(CCCCCCCC)CCCCCC[P+](CCCCCCCC)(CCCCCCCC)CCCCCCCC.[Br-].[Br-] | 32 µg/mL | > 64 µg/mL | 8 µg/mL | 32 µg/mL | 1 µg/mL | 2 µg/mL |  |
| CCCCCC[P+](CCCCCC)(CCCCCC)CCCCCC[P+](CCCCCC)(CCCCCC)CCCCCC.[Br-].[Br-] | 4 µg/mL | 8 µg/mL | 16 µg/mL | 8 µg/mL | 0.5 µg/mL | 0.5 µg/mL |  |
| CCCCCC[P+](CCCCCC)(CCCCCC)CCCCCCCCCC[P+](CCCCCC)(CCCCCC)CCCCCC.[I-].[I-] | 2 µg/mL | 2 µg/mL | 2 µg/mL | 2 µg/mL | 0.5 µg/mL | 0.5 µg/mL |  |
| CCCCCC[P+](CCCCCC)(CCCCCC)CCCCCCCCCC[P+](CCCCCC)(CCCCCC)CCCCCC.[Br-].[Br-] | 2 µg/mL | 4 µg/mL | 4 µg/mL | 4 µg/mL | 0.5 µg/mL | 1 µg/mL | Toxic |
| CCCCCC[N+](CCCCCC)(CCCCCC)CCCCCCCCCC[P+](CCCC)(CCCC)CCCC.[Br-].[Br-] | 16 µg/mL | > 64 µg/mL | > 64 µg/mL | 64 µg/mL | 1 µg/mL | 2 µg/mL |  |
| CCCCCC[N+](CCCCCC)(CCCCCC)CCCCCCCCCC[N+](CCCCCC)(CCCCCC)CCCCCC.[Br-].[Br-] | 2 µg/mL | 8 µg/mL | 16 µg/mL | 4 µg/mL | 0.5 µg/mL | 0.5 µg/mL | Toxic |
| CCCCCC[P+](CCCCCC)(CCCCCC)CCCCCCCCCC[P+](CCCC)(CCCC)CCCC.[Br-].[Br-] | 4 µg/mL | 64 µg/mL | 8 µg/mL | 16 µg/mL | 0.5 µg/mL | 2 µg/mL | Toxic |
| CCCCCC[N+](CCCCCC)(CCCCCC)CCCCCC[N+](CCCCCC)(CCCCCC)CCCCCC.[Br-].[Br-] | 32 µg/mL | > 64 µg/mL | > 64 µg/mL | > 64 µg/mL | 1 µg/mL | 1 µg/mL |  |
| CCCCCC[P+](CCCCCC)(CCCCCC)CCCCCCCCCC[P+](CCCCCC)(CCCCCC)CCCCCC.[Cl-].[Cl-] | 2 µg/mL | 4 µg/mL | 2 µg/mL | 2 µg/mL | 0.5 µg/mL | 0.5 µg/mL |  |
| CCCCCC[N+](CCCCCC)(CCCCCC)CCCCCC[P+](CCCC)(CCCC)CCCC.[Br-].[Br-] | > 64 µg/mL | > 64 µg/mL | > 64 µg/mL | > 64 µg/mL | 32 µg/mL | 64 µg/mL |  |
| CCCCCC[N+](CCCCCC)(CCCCCC)CCCCCCCCCC[P+](CCCCCC)(CCCCCC)CCCCCC.[Br-].[Br-] | 2 µg/mL | 8 µg/mL | 8 µg/mL | 2 µg/mL | 0.5 µg/mL | 1 µg/mL | Toxic |
| CCCC[P+](CCCC)(CCCC)CCCCCC[P+](CCCC)(CCCC)CCCC.[Br-].[Br-] | > 64 µg/mL | > 64 µg/mL | > 64 µg/mL | > 64 µg/mL | > 64 µg/mL | > 64 µg/mL |  |
| CCCCCCCC[P+](CCCCCCCC)(CCCCCCCC)CCCCCC[P+](CCCCCC)(CCCCCC)CCCCCC.[Br-].[Br-] | 8 µg/mL | 8 µg/mL | 4 µg/mL | 4 µg/mL | 1 µg/mL | 2 µg/mL |  |
